Assay results from patent US20120121540A1 (priority 2007, published 2012).

assay: HCV replicon assay (luciferase reporter, ET cell line); assay type: cell-based; conditions: Hepatitis C virus, HCV replicon luciferase activity in ET cells
Summary of the method: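 EC50 and, via WST-1 cytotoxicity, TC50 were fitted with a Hill-coefficient equation to % inhibition across 10 two-fold dilutions. Compounds at 0.1 nM-[…] with 0.5% DMSO were applied 24 h post-seeding to replicon-bearing ET cells (luc-ubi-neo/NS3-5B, adaptive mutations). Firefly luciferase signal was measured after 48-72 h.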

Which inhibition at 10 µM does the source give for `O=C(c1nc2c(C(F)(F)F)cc(-c3ccoc3)cn2c1Cl)N1C2C=C(c3cscn3)CC1CC2` (centres unmarked) [Compound 634, [3-chloro-6-(furan-3-yl)-8-(trifluoromethyl)imidazo[1,2-a]pyridin-2-yl][3-(1,3-thiazol-4-yl)-8-azabicyclo[3.2.1]oct-2-en-8-yl]methanone] here?
The inhibition at 10 µM was 86.4%.

Which inhibition at 10 µM does the source give for `O=C(NCc1cccs1)c1nc2c(C(F)(F)F)cc(-c3ccsc3)cn2c1Cl` [Compound 160, 3-Chloro-6-thiophen-3-yl-8-trifluoromethyl-imidazo[1,2-a]pyridine-2-carboxylic acid (thiophen-2-ylmethyl)-amide] here?
The inhibition at 10 µM was 97.3%.

With `COC(=O)c1ccccc1C1CCN(C(=O)c2nc3c(C(F)(F)F)cc(-c4ccoc4)cn3c2Cl)C1` (centres unmarked) [Compound 338, 2-[1-(3-Chloro-6-furan-3-yl-8-trifluoromethyl-imidazo[1,2-a]pyridine-2-carbonyl)-pyrrolidin-3-yl]-benzoic Acid Methyl Ester] as the compound, how does the inhibition at 10 µM read?
Its inhibition at 10 µM is 49.3%.

With `O=C(c1nc2c(C(F)(F)F)cc(-c3ccoc3)cn2c1Cl)N1CC=C(c2ccccc2F)CC1` [Compound 555, (3-Chloro-6-furan-3-yl-8-trifluoromethyl-imidazo[1,2-a]pyridin-2-yl)-[4-(2-fluoro-phenyl)-3,6-dihydro-2H-pyridin-1-yl)-methanone] as the compound, how does the inhibition at 10 µM read?
Its inhibition at 10 µM is 95.5%.

For `O=C(c1nc2c(C(F)(F)F)cc(-c3ccoc3)cn2c1Cl)N1CCN(c2ccc(F)cc2F)CC1` [Compound 596, (3-Chloro-6-furan-3-yl-8-trifluoromethyl-imidazo[1,2-a]pyridin-2-yl)-[4-(2,4-difluoro-phenyl)-piperazin-1-yl]-methanone], which inhibition at 10 µM is on record?
The inhibition at 10 µM was 75.6%.

Which inhibition at 10 µM does the source give for `O=C(c1nc2c(C(F)(F)F)cc(-c3ccoc3)cn2c1Cl)N1CC=C(c2ccc(F)cc2)CC1` [Compound 595, (3-Chloro-6-furan-3-yl-8-trifluoromethyl-imidazo[1,2-a]pyridin-2-yl)-[4-(4-fluoro-phenyl)-3,6-dihydro-2H-pyridin-1-yl]-methanone] here?
Its inhibition at 10 µM is 77.2%.

Which inhibition at 10 µM does the source give for `CC(C)(C)OC(=O)N[C@H]1CN(C(=O)c2nc3c(C(F)(F)F)cc(-c4ccoc4)cn3c2Cl)C[C@@H]1c1ccccc1` (stereo in doubt) [Compound 456, (-1-(3-Chloro-6-furan-3-yl-8-trifluoromethyl-imidazo[1,2-a]pyridine-2-carbonyl)-4-phenyl-pyrrolidin-3-yl)-carbamic acid tert-butyl ester] here?
Its inhibition at 10 µM is 79.3%.

For `O=C(c1nc2c(C(F)(F)F)cc(-c3ccoc3)cn2c1Cl)N1N=C(c2ccoc2)CC1c1cc(Br)ccc1O` (centres unmarked) [Compound 472, [5-(5-Bromo-2-hydroxy-phenyl)-3-furan-3-y-4,5-dihydro-pyrazol-1-yl]-(3-chloro-6-furan-3-yl-8-trifluoromethyl-imidazo[1,2-a]pyridin-2-yl)-methanone], which inhibition at 10 µM is on record?
The inhibition at 10 µM was 86.6%.

With `O=C(c1nc2c(C(F)(F)F)cc(-c3ccoc3)cn2c1Cl)N1CC=C(c2ccnc(F)c2)CC1` [Compound 587, (3-Chloro-6-furan-3-yl-8-trifluoromethyl-imidazo[1,2-a]pyridine-2-yl)-(2′-fluoro-3,6-dihydro-2H-[4,4′]bipyridinyl-1-yl)-methanone] as the compound, how does the inhibition at 10 µM read?
The inhibition at 10 µM was 76.9%.

With `N#Cc1cc(C(F)(F)F)c2nc(C(=O)NCc3cccs3)c(Cl)n2c1` [Compound 309, 3-Chloro-6-cyano-8-trifluoromethyl-imidazo[1,2-a]pyridine-2-carboxylic Acid (thiophen-2-ylmethyl)-amide] as the compound, how does the inhibition at 10 µM read?
Its inhibition at 10 µM is 1.8%.

With `O=C(c1nc2c(C(F)(F)F)cc(C3=CCNCC3)cn2c1Cl)N1CCC(c2cccc(F)c2)C1` (centres unmarked) [Compound 629, [3-chloro-6-(1,2,3,6-tetrahydropyridin-4-yl)-8-(trifluoromethyl)imidazo[1,2-a]pyridin-2-yl][3-(3-fluorophenyl)pyrrolidin-1-yl]methanone] as the compound, how does the inhibition at 10 µM read?
Its inhibition at 10 µM is 73.3%.

For `O=C(NCc1cccs1)c1[nH]c2c(Cl)cc(-c3ccccc3)cc2c1Cl` [Compound 110, 3,7-Dichloro-5-phenyl-1H-indole-2-carboxylic acid (thiophen-2-ylmethyl)-amide], which inhibition at 10 µM is on record?
The inhibition at 10 µM was 35.9%.

Which inhibition at 10 µM does the source give for `C[C@H](CNC(=O)c1nc2c(C(F)(F)F)cc(-c3ccoc3)cn2c1Cl)c1ccccc1` [Compound 414, 3-Chloro-6-furan-3-yl-8-trifluoromethyl-imidazo[1,2-a]pyridine-2-carboxylic Acid (2-phenyl-propyl)-amide] here?
The inhibition at 10 µM was 76.3%.

With `O=C(c1nc2c(C(F)(F)F)cc(-c3ccoc3)cn2c1Cl)N1CCN(c2ccc(F)c(F)c2)CC1` [Compound 538] as the compound, how does the inhibition at 10 µM read?
Its inhibition at 10 µM is 78.3%.

With `O=C(c1nc2c(C(F)(F)F)cc(-c3ccoc3)cn2c1Cl)N1CCC(N2CCCCC2)C1` (centres unmarked) [Compound 340, (3-Chloro-6-furan-3-yl-8-trifluoromethyl-imidazo[1,2-a]pyridin-2-yl)-(3-piperidin-1-yl-pyrrolidin-1-yl)-methanone] as the compound, how does the inhibition at 10 µM read?
Its inhibition at 10 µM is 65.6%.

With `O=C(c1nc2c(C(F)(F)F)cc(-c3cn[nH]c3)cn2c1Br)N1CCC(c2nccs2)C1` (centres unmarked) [Compound 432, [3-Bromo-6-(1H-pyrazol-4-yl)-8-trifluoromethyl-imidazo[1,2-a]pyridin-2-yl]-(3-thiazol-2-yl-pyrrolidin-1-yl)-methanone] as the compound, how does the inhibition at 10 µM read?
Its inhibition at 10 µM is 96.5%.

For `O=C(c1nc2c(C(F)(F)F)cc(-c3ccoc3)cn2c1Cl)N1CCCC(c2ccc(F)cc2)C1` (centres unmarked) [Compound 548, (3-Chloro-6-furan-3-yl-8-trifluoromethyl-imidazo[1,2-a]pyridin-2-yl)-[3-(4-fluoro-phenyl)-piperidin-1-yl)-methanone], which inhibition at 10 µM is on record?
The inhibition at 10 µM was 91.2%.

For `O=C(Cc1ccccc1)NCc1nc2c(C(F)(F)F)cc(-c3ccoc3)cn2c1Cl` [Compound 389, N-(3-Chloro-6-furan-3-yl-8-trifluoromethyl-imidazo[1,2-a]pyridin-2-ylmethyl)-2-phenyl-acetamide], which inhibition at 10 µM is on record?
The inhibition at 10 µM was 45.3%.

With `O=C(c1nc2c(C(F)(F)F)cc(-c3ccoc3)cn2c1Cl)N1CCCC(c2cccc(F)c2)C1` (centres unmarked) [Compound 549, (3-Chloro-6-furan-3-yl-8-trifluoromethyl-imidazo[1,2-a]pyridin-2-yl)-[3-(3-fluoro-phenyl)-piperidin-1-yl)-methanone] as the compound, how does the inhibition at 10 µM read?
The inhibition at 10 µM was 94.3%.

Which inhibition at 10 µM does the source give for `O=C(NC1CCc2ccccc21)c1nc2c(C(F)(F)F)cc(-c3ccco3)cn2c1Cl` (centres unmarked) [Compound 187, 3-Chloro-6-furan-2-yl-8-trifluoromethyl-imidazo[1,2-a]pyridine-2-carboxylic acid indan-1-ylamide] here?
The inhibition at 10 µM was 34.2%.

For `O=C(Cc1cn2cc(-c3ccoc3)cc(C(F)(F)F)c2n1)N1CCC(c2cccc(F)c2)C1` (centres unmarked) [Compound 652, 1-[3-(3-fluorophenyl)pyrrolidin-1-yl]-2-[6-(furan-3-yl)-8-(trifluoromethyl)imidazo[1,2-a]pyridin-2-yl]ethanone], which inhibition at 10 µM is on record?
Its inhibition at 10 µM is 82.1%.

With `O=C(c1nc2c(C(F)(F)F)cc(-c3coc(Cl)c3)cn2c1Cl)N1CCC(c2cccc(F)c2)C1` (centres unmarked) [Compound 633, [3-Chloro-6-(5-chloro-furan-3-yl)-8-trifluoromethyl-imidazo[1,2-a]pyridin-2-yl]-[3-(3-fluoro-phenyl)-pyrrolidin-1-yl]-methanone] as the compound, how does the inhibition at 10 µM read?
The inhibition at 10 µM was 90.2%.

Which inhibition at 10 µM does the source give for `O=C(c1nc2c(C(F)(F)F)cc(-c3ccoc3)cn2c1Cl)N1CCC(c2nccs2)C1` (centres unmarked) [Compound 430, (3-Chloro-6-furan-3-yl-8-trifluoromethyl-imidazo[1,2-a]pyridin-2-yl)-(3-thiazol-2-yl-pyrrolidin-1-yl)-methanone] here?
Its inhibition at 10 µM is 99.4%.

Which inhibition at 10 µM does the source give for `FC(F)(F)c1cc(-c2ccoc2)cn2cc(-c3cc(-c4ccccc4)no3)nc12` [Compound 654, 6-Furan-3-yl-2-(3-phenyl-isoxazol-5-yl)-8-trifluoromethyl-imidazo[1,2-a]pyridine] here?
The inhibition at 10 µM was 20.4%.

With `CN(C)c1cc(-c2ccccc2)cc2cc(C(=O)NCc3cccs3)nn12` [Compound 150, 7-dimethylamino-5-phenyl-pyrazolo[1,5-a]pyridine-2-carboxylic Acid (thiophen-2-ylmethyl)-amide] as the compound, how does the inhibition at 10 µM read?
Its inhibition at 10 µM is 43.5%.

For `CS(=O)(=O)NC1CN(C(=O)c2cn3cc(-c4ccoc4)cc(C(F)(F)F)c3n2)C1` [Compound 519, N-[1-(6-Furan-3-yl-8-trifluoromethyl-imidazazo[1,2-a]pyridine-2-carbonyl)-azetidin-3-yl]-methanesulfonamide], which inhibition at 10 µM is on record?
Its inhibition at 10 µM is 84.7%.

Which inhibition at 10 µM does the source give for `O=C(NC(C(=O)NCCCN1CCOCC1)c1cccs1)c1nc2c(C(F)(F)F)cc(-c3ccco3)cn2c1Cl` (centres unmarked) [Compound 171, 3-Chloro-6-furan-2-yl-8-trifluoromethyl-imidazo[1,2-a]pyridine-2-carboxylic acid [(3-morpholin-4-yl-propylcarbamoyl)-thiophen-2-yl-methyl]-amide] here?
Its inhibition at 10 µM is 99.4%.

With `O=C(c1nc2c(C(F)(F)F)cc(-c3ccoc3)cn2c1Cl)N1C=C(c2ccccc2F)CCC1` [Compound 590, (3-Chloro-6-furan-3-yl-8-trifluoromethyl-imidazo[1,2-a]pyridine-2-yl)-[5-(2-fluoro-phenyl)-3,4-dihydro-2H-pyridin-1-yl]-methanone] as the compound, how does the inhibition at 10 µM read?
Its inhibition at 10 µM is 93.9%.

For `O=C(NC(c1ccccc1)c1ccccn1)c1nc2c(C(F)(F)F)cc(-c3ccoc3)cn2c1Cl` (centres unmarked) [Compound 410, 3-Chloro-6-furan-3-yl-8-trifluoromethyl-imidazo[1,2-a]pyridine-2-carboxylic Acid (phenyl-pyridin-2-yl-methyl)-amide], which inhibition at 10 µM is on record?
Its inhibition at 10 µM is 99.1%.

Which inhibition at 10 µM does the source give for `CN(C)S(=O)(=O)NC1CN(C(=O)c2nc3c(C(F)(F)F)cc(-c4ccoc4)cn3c2Cl)C1` [Compound 504] here?
Its inhibition at 10 µM is 98.9%.

With `O=C(c1nc2c(C(F)(F)F)cc(-c3ccoc3)cn2c1Cl)N1CCN(c2cccc(F)c2)CC1` [Compound 531, (3-Chloro-6-furan-3-yl-8-trifluoromethyl-imidazo[1,2-a]pyridine-2-yl)-[4-(3-fluoro-phenyl)-piperazin-1-yl]-methanone] as the compound, how does the inhibition at 10 µM read?
The inhibition at 10 µM was 79.3%.

For `O=C(c1nc2c(C(F)(F)F)cc(-c3ccoc3)cn2c1Cl)N1CCN(c2ccc(F)cc2)CC1` [Compound 530, (3-Chloro-6-furan-3-yl-8-trifluoromethyl-imidazo[1,2-a]pyridine-2-yl)-[4-(4-fluoro-phenyl)-piperazin-1-yl]-methanone], which inhibition at 10 µM is on record?
Its inhibition at 10 µM is 80.3%.
